Results on 3 molecules are retold here after patent US6288073A, “Acronycine derivatives, preparation method and pharmaceutical compositions” (Adir et Compagnie, priority 1997, dated 2001).

SMILES strings stand for the structures. pIC50: −log10 of the molar value.

In experiment [1] the test system is Human Colon Carcinoma HT29. Nature of the experiment: Anti-tumour activity on human colon carcinoma HT29 grafted onto nude mice. The experiment is classed as in vivo, nude mice (human HT29 xenograft). From the text:
Line HT29 was supplied by the ATCC (American Type Culture Collection, Rockville, USA). The tumour cells were inoculated into female nude Swiss mice (10^7 cells per animal) by the subcutaneous route. The tumours were then removed and cut into fragments, which were grafted onto nude mice by the subcutaneous route. Once the tumour volume had reached from 50 to 100 mm^3, the mice were distributed into experimental groups containing 8 animals (control group) or 6 animals (treated groups) (day 0). The products were administered by the i.v. route once per week for 3 weeks. The tumours were measured twice per week and the tumour volumes were calculated according to the formula: volume (mm^3)=length (mm)×width^2 […]/2 [formula]
with V0 and Vt being the initial volume and the volume at measurement time t, respectively.

Experiment [2] has as its system Line P 388 (murine leukaemia). Nature of the experiment: Anti-tumour activity on line P 388 in vivo. To be noted: for % T/C: P 388 inoculated i.p. into female B6D2F1 mice, product i.p. on day 1 at the optimum dose; for Anti-tumour activity on line P 388 (in words): P 388 model in B6D2F1 mice, i.p., d1. Also on record: species or system mice. On the procedure: Line P 388 (murine leukaemia) was supplied by the National Cancer Institute (Frederick, USA). The tumour cells (10^6 cells) were inoculated on day 0 into the peritoneal cavity of female B6D2F1 mice (Iffa Credo, France). Six mice weighing from 18 to 20 g were used for each experimental group. The products were administered by the intraperitoneal route on day 1.
The anti-tumour activity is expressed as % TIC: [formula]

In experiment [3] the test system is Murine leukaemia L1210. Kind of experiment: Cytotoxicity for L1210 cells in culture (Microculture Tetrazolium Assay). The experiment is classed as cell-based. To be noted: Mus musculus, exposure 48 hours (4 periods of cell doubling), viable cells by Microculture Tetrazolium Assay. On the procedure:
Murine leukaemia L1210 was used in vitro. The cells are cultured in RPMI 1640 complete culture medium containing 10% foetal calf serum, 2 mM giutamine, 50 units/ml of penicillin, 50 μg/ml of streptomycin and 10 mM Hepes, pH: 7.4. The cells are distributed on microplates and exposed to the cytotoxic compounds for 4 periods of cell doubling, i.e. 48 hours. The number of viable cells is then quantified by means of a colorimetric assay, the Microculture Tetrazolium Assay (J. Carmichael et al., Cancer Res., 47, 936-942, (1987)). The results are expressed as IC50, the concentration of cytotoxic agent which inhibits the proliferation of the treated cells by 50%.

`COc1cc2c(c3c1c(=O)c1cc4ccccc4cc1n3C)[C@@H](OC(C)=O)[C@@H](OC(C)=O)C(C)(C)O2` (relative stereo) [Example 5, (±)-cis-1,2-Diacetoxy-4-methoxy-3,3,14-trimethyl-2,3,7,14-tetrahydro-1H-benzo[b]pyrano[3,2-h]acridin-7-one]: the “Anti-tumour activity on line HT29 (in words)” value in experiment [1] (HT29 model in nude mice, i.v.) is on record as “very active”. The “% T/C on day 32” value in experiment [1] (HT29 s.c. grafts in nude Swiss mice, i.v. d 0, 7, 14 at optimum dose, tumour volume) is reported as 17%. Besides, the “inhibition of growth of the HT29 tumour” value in experiment [1] (on day 32, HT29 s.c. grafts in nude mice, i.v. once per week for 3 weeks) is 83%.

For the molecule `COc1cc2c(c3c1c(=O)c1ccccc1n3C)C=CC(C)(C)O2` [Acronycine], in experiment [2], the “% T/C” value is reported as 125% and the “Anti-tumour activity on line P 388 (in words)” value was “only marginally active”. The molecule further had a pIC50 in experiment [3] of 4.57.

For `COc1cc2c(c3c1c(=O)c1cc4ccccc4cc1n3C)[C@H]1OC(=O)O[C@H]1C(C)(C)O2` (relative stereo) [Example 7, cis-7-Methoxy-4,4,15-trimethyl-3a,8,15,15c-tetrahydro-4H-benzo[b][1,3]dioxolo[4',5':4,5]pyrano[3,2-h]acridine-2,8-dione], in experiment [2], the “% T/C” value is 327% and the “Anti-tumour activity on line P 388 (in words)” value is “very active”. In addition, the pIC50 in experiment [3] is 7.64.

In general, pIC50 refers to the IC50 on a negative log10 scale, so that one unit is a factor of ten. Low readings indicate a high IC50, high ones a low IC50.
